# Test results: patent publication US8507756B2, “Plant protection” (Plant Bioscience Limited, priority 2007, dated 2013)
# Tested on: Myzus persicae
# Assay: JA or MeJA seed treatment, tomato plants challenged with aphids
# Type: in vivo
# Conditions: tomato cv. Carousel; seed treatment 3.0 mM MeJA; challenged 10 weeks after seed treatment; 12 days feeding
# Protocol: Tomato, pepper, maize and wheat seeds were treated with 3 mM JA or 1.5 mM JA solutions or with 3 mM methyl jasmonate (MeJA) or with deionised water containing 42.8 mM ethanol (control) by full submersion of up to 40 seeds in a Petri dish of solution wrapped in foil for a period of 24 hours at 4° C. in a fridge. A temperature of 4° C. was used both to prevent degradation of the jasmonic acid solutions and to prevent germination of the seeds. The seeds were then removed from the treatment solution and washed in 1 liter of deionised water for 5 minutes to remove the JA or MeJA coating the outside of the seeds. Tomato seeds were sown in rockwool blocks and grown on peat-based compost in glass houses at 12° C.-28° C. under artificial light on a 16 hour light and 8 hour dark cycle for 48, 56 or 70 days. Tomato plants were then challenged with Tetranychus urticae (two-spotted spider mite) which were allowed to feed for 9 days, Manduca sexta (tobacco hornworm) caterpillars which were allowed to feed for 4 days or Myzus persicae (aphid), which were allowed to feed for 10 or 12 days. In each case these organisms were restricted to the plant on which they had originally been placed. Pepper plants were challenged with Myzus persicae (aphid), which were allowed to feed for 2 weeks. Maize and wheat plants were challenged with Spodoptera […] caterpillars which were allowed to feed for 2 days (maize) or 3 days (wheat). The effect of Myzus persicae on plants was determined by counting the aphid population on each plant under a dissecting microscope at ×10 magnification. Seeds of a UK commercial F1 hybrid tomato variety (cv. Carousel) were treated with 3.0 mM jasmonic acid (JA) and 42.8 mM ethanol in deionised H2O for a period of 24 hours at 4° C. in the dark. […] Aphids were allowed to feed on the plants for twelve days and the aphid population was measured at intervals over this period. […]
compound,measurement,value
"CC/C=C\CC1C(=O)CCC1CC(=O)OC (stereo not shown) [MeJA, jasmonic acid methyl ester]",Aphid population compared with control plants,significant (p<0.05) reduction
